Measurements taken from patent publication US20220041681A1 (MEDIMMUNE LIMITED, priority 2016, published 2022).

Tested on: Healthy volunteer
Assay: Phase 1 single-ascending dose study
Details: for Median glucose peak after breakfast: 1 hour post breakfast, 3.5 hours post dose; for Median glucose peak after dinner: 1 hour post dinner, […] post dose; for Median glucose peak after lunch: 1 hour post lunch, 7 hours post dose; for Overall daily food intake compared with placebo: across breakfast, lunch and dinner
[1] = Total G933, N = 36, subjects n (%)

CCCCCCCCCCCCCCCC(=O)N[C@@H](CCC(=O)NCCCC[C@H](NC(=O)[C@H](CC(=O)O)NC(=O)[C@H](CO)NC(=O)C(NC(=O)[C@H](Cc1ccccc1)NC(=O)C(NC(=O)CNC(=O)[C@H](CCC(N)=O)NC(=O)[C@H](CO)NC(=O)[C@@H](N)Cc1cnc[nH]1)[C@@H](C)O)[C@@H](C)O)C(=O)N[C@@H](CO)C(=O)N[C@@H](CCC(=O)O)C(=O)N[C@@H](Cc1ccc(O)cc1)C(=O)N[C@@H](CC(C)C)C(=O)N[C@@H](CC(=O)O)C(=O)N[C@@H](CO)C(=O)N[C@@H](CCC(=O)O)C(=O)N[C@@H](CCCNC(=N)N)C(=O)N[C@@H](C)C(=O)N[C@@H](CCCNC(=N)N)C(=O)N[C@@H](CC(=O)O)C(=O)N[C@@H](Cc1ccccc1)C(=O)N[C@H](C(=O)N[C@@H](C)C(=O)N[C@@H](Cc1c[nH]c2ccccc12)C(=O)N[C@@H](CC(C)C)C(=O)N[C@@H](CCC(=O)O)C(=O)N[C@@H](C)C(=O)NCC(=O)NCC(=O)O)C(C)C)C(=O)O (some centres unmarked) [Peptide G933]
TEAE: Gastrointestinal Disorders (150 μg, N = 6, subjects n (%)): 5 (83.3%) | TEAE: Headache (150 μg, N = 6, subjects n (%)): 1 (16.7%) | TEAE: Immune System Disorders (150 μg, N = 6, subjects n (%)): 0 | TEAE: Injury associated with device (150 μg, N = 6, subjects n (%)): 0 | TEAE: Injury poisoning and procedural complications (150 μg, N = 6, subjects n (%)): 0 | TEAE: Metabolism and nutrition disorders (150 μg, N = 6, subjects n (%)): 2 (33.3%) | TEAE: Musculoskeletal and connective tissue disorders (150 μg, N = 6, subjects n (%)): 0 | TEAE: Musculoskeletal chest pain (150 μg, N = 6, subjects n (%)): 0 | TEAE: Nasopharyngitis (150 μg, N = 6, subjects n (%)): 0 | TEAE: Nausea (150 μg, N = 6, subjects n (%)): 4 (66.7%) | TEAE: Nervous system disorders (150 μg, N = 6, subjects n (%)): 1 (16.7%) | TEAE: Oropharyngeal pain (150 μg, N = 6, subjects n (%)): 1 (16.7%) | TEAE: Procedural dizziness (150 μg, N = 6, subjects n (%)): 0 | TEAE: Respiratory, thoracic and mediastinal disorders (150 μg, N = 6, subjects n (%)): 1 (16.7%) | TEAE: Seasonal allergy (150 μg, N = 6, subjects n (%)): 0 | TEAE: Subjects with at least one event (150 μg, N = 6, subjects n (%)): 5 (83.3%) | TEAE: Ventricular extrasystoles (150 μg, N = 6, subjects n (%)): 0 | TEAE: Vomiting (150 μg, N = 6, subjects n (%)): 4 (66.7%) | vomiting episodes (300 μg dose, 5 subjects): Thirty | tolerability (300 μg single SC dose): not tolerated | TEAE: Abdominal distension (300 μg, N = 6, subjects n (%)): 0 | TEAE: Abdominal pain (300 μg, N = 6, subjects n (%)): 0 | TEAE: Application site erosion (300 μg, N = 6, subjects n (%)): 0 | TEAE: Arrhythmia (300 μg, N = 6, subjects n (%)): 0 | TEAE: Atrioventricular block second degree (300 μg, N = 6, subjects n (%)): 0 | TEAE: Cardiac Disorders (300 μg, N = 6, subjects n (%)): 1 (16.7%) | TEAE: Decreased appetite (300 μg, N = 6, subjects n (%)): 0 | TEAE: Diarrhea (300 μg, N = 6, subjects n (%)): 0 | TEAE: Dizziness (300 μg, N = 6, subjects n (%)): 1 (16.7%) | TEAE: Gastrointestinal Disorders (300 μg, N = 6, subjects n (%)): 5 (83.3%) | TEAE: Headache (300 μg, N = 6, subjects n (%)): 0 | TEAE: Immune System Disorders (300 μg, N = 6, subjects n (%)): 0 | TEAE: Injury associated with device (300 μg, N = 6, subjects n (%)): 1 (16.7%) | TEAE: Injury poisoning and procedural complications (300 μg, N = 6, subjects n (%)): 0 | TEAE: Metabolism and nutrition disorders (300 μg, N = 6, subjects n (%)): 0 | TEAE: Musculoskeletal and connective tissue disorders (300 μg, N = 6, subjects n (%)): 0 | TEAE: Musculoskeletal chest pain (300 μg, N = 6, subjects n (%)): 0 | TEAE: Nasopharyngitis (300 μg, N = 6, subjects n (%)): 0 | TEAE: Nausea (300 μg, N = 6, subjects n (%)): 3 (50.0%) | TEAE: Oropharyngeal pain (300 μg, N = 6, subjects n (%)): 0 | TEAE: Procedural dizziness (300 μg, N = 6, subjects n (%)): 0 | TEAE: Respiratory, thoracic and mediastinal disorders (300 μg, N = 6, subjects n (%)): 0 | TEAE: Seasonal allergy (300 μg, N = 6, subjects n (%)): 0 | TEAE: Subjects with at least one event (300 μg, N = 6, subjects n (%)): 5 (83.3%) | TEAE: Ventricular extrasystoles (300 μg, N = 6, subjects n (%)): 1 (16.7%) | TEAE: Vomiting (300 μg, N = 6, subjects n (%)): 5 (83.3%) | TEAE: Abdominal distension [1]: 2 (5.6%) | TEAE: Abdominal pain [1]: 1 (2.8%) | TEAE: Application site erosion [1]: 1 (2.8%) | TEAE: Arrhythmia [1]: 1 (2.8%) | TEAE: Atrioventricular block second degree [1]: 1 (2.8%) | TEAE: Cardiac Disorders [1]: 3 (8.3%) | TEAE: Decreased appetite [1]: 2 (5.6%) | TEAE: Diarrhea [1]: 1 (2.8%) | TEAE: Dizziness [1]: 5 (13.9%) | TEAE: Gastrointestinal Disorders [1]: 12 (33.3%) | TEAE: Headache [1]: 4 (11.1%) | TEAE: Immune System Disorders [1]: 1 (2.8%) | TEAE: Injury associated with device [1]: 1 (2.8%) | TEAE: Injury poisoning and procedural complications [1]: 1 (2.8%) | TEAE: Metabolism and nutrition disorders [1]: 2 (5.6%) | TEAE: Musculoskeletal and connective tissue disorders [1]: 1 (2.8%) | TEAE: Musculoskeletal chest pain [1]: 1 (2.8%) | TEAE: Nasopharyngitis [1]: 1 (2.8%) | TEAE: Nausea [1]: 8 (22.2%) | TEAE: Oropharyngeal pain [1]: 1 (2.8%) | TEAE: Procedural dizziness [1]: 1 (2.8%) | TEAE: Respiratory, thoracic and mediastinal disorders [1]: 1 (2.8%) | TEAE: Seasonal allergy [1]: 1 (2.8%) | TEAE: Subjects with at least one event [1]: 21 (58.3%) | TEAE: Ventricular extrasystoles [1]: 1 (2.8%) | TEAE: Vomiting [1]: 10 (27.8%) | severity of treatment-emergent adverse events (all doses): Grade 1 (mild) or Grade 2 (moderate) | overall daily food intake (all doses compared with placebo, in words): reduction in overall daily food intake | plasma glucose levels (all doses, around meal times, in words): glucose lowering effect | ADA positive subjects (baseline or post-baseline): No subjects were ADA positive | tolerability with respect to nausea, vomiting, tachycardia and blood pressure (doses up to 150 μg): acceptable | geometric mean t1/2 (single SC dose): 10 to 12 h | Median diastolic BP maximum post dose change (single dose 5 μg): 13 mm Hg | Number of subjects with vomiting (single dose 5 μg): 0(0) | vomiting episodes (single dose 5 μg): 0(0) | Median glucose peak after breakfast (single dose 5 μg): 6.2 mmol/L | Median glucose peak after dinner (single dose 5 μg): 7.0 mmol/L | Median glucose peak after lunch (single dose 5 μg): 4.9 mmol/L | Overall daily food intake compared with placebo (single dose 5 μg): 100% | Median diastolic BP maximum post dose change (single dose 10 μg): 8 mm Hg | Number of subjects with vomiting (single dose 10 μg): 0(0) | vomiting episodes (single dose 10 μg): 0(0) | Median glucose peak after breakfast (single dose 10 μg): 5.8 mmol/L | Median glucose peak after dinner (single dose 10 μg): 6.0 mmol/L | Median glucose peak after lunch (single dose 10 μg): 5.1 mmol/L | Overall daily food intake compared with placebo (single dose 10 μg): 100% | Number of subjects with vomiting (single dose 30 μg): 0(0) | vomiting episodes (single dose 30 μg): 0(0) | Median glucose peak after breakfast (single dose 30 μg): 5.4 mmol/L | Median glucose peak after dinner (single dose 30 μg): 5.2 mmol/L | Median glucose peak after lunch (single dose 30 μg): 4.4 mmol/L | Overall daily food intake compared with placebo (single dose 30 μg): 96% | Median diastolic BP maximum post dose change (single dose 100 μg): 16 mm Hg | Number of subjects with vomiting (single dose 100 μg): 1(1) | vomiting episodes (single dose 100 μg): 1(1) | Median glucose peak after breakfast (single dose 100 μg): 5.5 mmol/L | Median glucose peak after dinner (single dose 100 μg): 5.2 mmol/L | Median glucose peak after lunch (single dose 100 μg): 4.7 mmol/L | Overall daily food intake compared with placebo (single dose 100 μg): 82% | Median diastolic BP maximum post dose change (single dose 150 μg): 15 mm Hg | Number of subjects with vomiting (single dose 150 μg): 4 | vomiting episodes (single dose 150 μg): 9 | Median glucose peak after breakfast (single dose 150 μg): 5.1 mmol/L | Median glucose peak after dinner (single dose 150 μg): 5.2 mmol/L | Median glucose peak after lunch (single dose 150 μg): 5.1 mmol/L | Overall daily food intake compared with placebo (single dose 150 μg): 60% | Median diastolic BP maximum post dose change (single dose 300 μg): 19 mm Hg | Number of subjects with vomiting (single dose 300 μg): 5 | vomiting episodes (single dose 300 μg): 30 | Median glucose peak after breakfast (single dose 300 μg): 4.7 mmol/L | Median glucose peak after dinner (single dose 300 μg): 4.9 mmol/L | Median glucose peak after lunch (single dose 300 μg): 5.1 mmol/L | Overall daily food intake compared with placebo (single dose 300 μg): 23%
